In ChEMBL document CHEMBL1201862, “PubChem BioAssay data set” (2004):
Active and inactive are the calls of the source.

Experiments:
[1] = biological target: Protein disulfide-isomerase (Homo sapiens, UniProt P07237); experiment: PDI inhibitors, insulin aggregation turbidity, dose response, biochemical, absorbance, cherry-picked samples (AID 602350); format: functional
[2] = CAL PDZ domain peptide-binding inhibitors, dose response, biochemical, fluorescence polarization, untagged CAL PDZ, cherry-pick, set 2 (AID 602254); format: functional
[3] = growth suppression of PTEN-null colon cells, dose response, cell-based, HCT116 PTEN knockout (AID 1047); format: functional;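 also: HCT116 colon tumor cells with PTEN knocked out; cells exposed to compound for 60 hours before readout; potency for loss of cell viability measured by luminescence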
[4] = biological target: T1, High affinity choline transporter 1 (Homo sapiens, UniProt Q9GZV3); experiment: CHT activators, dose response, cell-based, 10-point CRC, membrane potential dye (AID 602376); format: functional
T1 sequence (Q9GZV3 whole entry): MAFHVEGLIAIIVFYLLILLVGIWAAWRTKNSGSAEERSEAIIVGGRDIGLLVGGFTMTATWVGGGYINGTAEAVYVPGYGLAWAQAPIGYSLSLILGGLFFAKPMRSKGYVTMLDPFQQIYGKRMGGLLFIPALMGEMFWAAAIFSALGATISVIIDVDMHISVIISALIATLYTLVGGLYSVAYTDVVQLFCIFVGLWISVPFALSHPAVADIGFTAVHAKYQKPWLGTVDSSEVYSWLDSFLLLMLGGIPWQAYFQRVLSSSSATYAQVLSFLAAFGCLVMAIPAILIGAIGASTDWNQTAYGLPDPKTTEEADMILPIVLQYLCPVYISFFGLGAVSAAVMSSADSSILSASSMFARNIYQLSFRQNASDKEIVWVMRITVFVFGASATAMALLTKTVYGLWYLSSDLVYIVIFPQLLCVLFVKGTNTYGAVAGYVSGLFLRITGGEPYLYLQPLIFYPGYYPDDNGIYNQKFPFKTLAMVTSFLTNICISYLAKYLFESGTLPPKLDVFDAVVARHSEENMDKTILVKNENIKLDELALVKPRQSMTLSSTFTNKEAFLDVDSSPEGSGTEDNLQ

[5] = growth suppression of beta-catenin-knockout colon cells, dose response, cell-based, HCT116, human colon tumor (AID 1045); format: functional;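 also: HCT116 colon tumor cells with beta catenin knocked out; cells exposed to compound for 60 hours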
[6] = THP-1 cell cytotoxicity, dose response, cytotoxicity control for non-replicating M. tuberculosis project (AID 489025); format: functional
[7] = cells; format: functional
[8] = microbe, parasite or virus in culture; format: functional; details: Mycobacterium tuberculosis
[9] = Counterscreen for antagonists of the orexin 1 receptor (OX1R; HCRTR1): Fluorescence-based cell-based high throughput dose response assay to identify antagonists of the parental CHO cell line. [Related pubchem assays (depositor defined):AID434989, AID435008, AID463079, AID485270, AID492963, AID492964, AID492965, AID493232, AID504699, AID504701]; format: functional
[10] = HepG2 cell cytotoxicity, dose response, cytotoxicity control, plate reader, cherry-pick, antagonist series (AID 743416); format: functional, cell-based
[11] = biological target: T2, Orexin receptor type 2 (Homo sapiens, UniProt O43614); experiment: Counterscreen assay for antagonists of the orexin 1 receptor (OX1R; HCRTR1): Fluorescence-based cell-based dose response assay for antagonists of the orexin 2 receptor (OX2R; HCRTR2), run by assay provider.; format: functional
T2 sequence (O43614 whole entry): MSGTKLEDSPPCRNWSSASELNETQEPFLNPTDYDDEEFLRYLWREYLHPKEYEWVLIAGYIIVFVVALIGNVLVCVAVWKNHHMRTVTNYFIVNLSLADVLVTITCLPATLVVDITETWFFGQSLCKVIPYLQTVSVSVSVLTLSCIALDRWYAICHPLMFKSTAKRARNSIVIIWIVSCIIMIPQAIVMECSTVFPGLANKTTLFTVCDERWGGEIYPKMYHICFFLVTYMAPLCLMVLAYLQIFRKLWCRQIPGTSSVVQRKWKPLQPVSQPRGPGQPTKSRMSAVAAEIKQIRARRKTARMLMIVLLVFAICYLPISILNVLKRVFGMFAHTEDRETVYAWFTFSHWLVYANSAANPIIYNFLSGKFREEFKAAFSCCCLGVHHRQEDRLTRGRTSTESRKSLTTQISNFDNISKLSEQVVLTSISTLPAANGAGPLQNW

[12] = A549 cell cytotoxicity, dose response, cytotoxicity control, plate reader, cherry-pick, antagonist series (AID 743412); format: functional, cell-based
[13] = HEK293 cell cytotoxicity, dose response, cytotoxicity control, plate reader, cherry-picked samples (AID 743446); format: functional, cell-based
[14] = test system: Streptococcus; experiment: Group A Streptococcus viability loss, dose response, counter-screen for streptokinase expression inhibitor project, luminescence, BacTiterGlo (AID 1915); format: functional, organism-based;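 also: potency for reduction of bacterial viability or growth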
[15] = biological target: T3, Orexin/Hypocretin receptor type 1 (Homo sapiens, UniProt O43613); experiment: Fluorescence-based cell-based high throughput dose response assay for antagonists of the orexin 1 receptor (OX1R; HCRTR1). [Related pubchem assays (depositor defined):AID434989, AID435008, AID463079, AID485270, AID492963, AID492964, AID492965, AID493232, AID504717, AID504718]; format: functional
T3 sequence (O43613 whole entry): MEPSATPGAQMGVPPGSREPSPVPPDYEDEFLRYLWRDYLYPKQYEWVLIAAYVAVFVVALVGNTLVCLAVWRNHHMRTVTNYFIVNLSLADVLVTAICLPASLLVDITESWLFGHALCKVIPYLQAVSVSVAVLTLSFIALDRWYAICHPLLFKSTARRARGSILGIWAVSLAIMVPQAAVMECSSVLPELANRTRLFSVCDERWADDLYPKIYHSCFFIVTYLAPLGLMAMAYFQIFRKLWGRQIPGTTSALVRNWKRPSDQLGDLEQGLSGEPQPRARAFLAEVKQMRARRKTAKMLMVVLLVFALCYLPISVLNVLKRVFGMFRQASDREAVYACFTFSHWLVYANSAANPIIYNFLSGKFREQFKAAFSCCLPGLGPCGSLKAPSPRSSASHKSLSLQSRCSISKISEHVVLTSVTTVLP

[16] = biological target: T4, Streptokinase A (Streptococcus pyogenes serotype M1, UniProt P10520); experiment: S. pyogenes streptokinase expression inhibitors, potency, dose response, plasminogen activation absorbance, OD405 (AID 1914); format: functional, Streptococcus pyogenes M1 GAS;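 also: secreted streptokinase activity via plasminogen activation per viability signal from cell pellet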
T4 sequence (P10520 whole entry): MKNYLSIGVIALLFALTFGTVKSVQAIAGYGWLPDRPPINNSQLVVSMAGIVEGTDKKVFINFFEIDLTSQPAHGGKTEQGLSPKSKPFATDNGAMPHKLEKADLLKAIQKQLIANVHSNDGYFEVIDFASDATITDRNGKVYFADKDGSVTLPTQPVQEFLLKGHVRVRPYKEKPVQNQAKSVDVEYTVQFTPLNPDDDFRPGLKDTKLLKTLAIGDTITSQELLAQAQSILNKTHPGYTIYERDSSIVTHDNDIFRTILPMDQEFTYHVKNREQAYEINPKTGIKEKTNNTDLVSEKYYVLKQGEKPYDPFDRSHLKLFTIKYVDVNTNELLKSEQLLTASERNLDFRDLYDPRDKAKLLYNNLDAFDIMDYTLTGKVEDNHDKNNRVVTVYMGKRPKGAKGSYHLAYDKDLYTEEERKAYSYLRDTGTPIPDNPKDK

[17] = test system: CHO-K1; experiment: Counterscreen for antagonists of the orexin 1 receptor (OX1R; HCRTR1): Homogeneous time resolved fluorescence (HTRF)-based cell-based dose response assay to identify antagonists of the parental CHO-K1 cell line. [Related pubchem assays (depositor defined):AID434989, AID435008, AID463079, AID485270, AID492963, AID492964, AID492965, AID493232, AID504699, AID504701]; format: functional; details: Cricetulus griseus;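 also: potency for inhibition of ATP-stimulated IP1 production as antagonists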
[18] = biological target: T2, Orexin receptor type 2; experiment: Counterscreen assay for antagonists of the orexin 1 receptor (OX1R; HCRTR1): Homogeneous Time Resolved Fluorescence (HTRF)-based cell-based dose response assay for antagonists of the orexin 2 receptor (OX2R; HCRTR2), run by assay provider.; format: functional
[19] = biological target: T3, Orexin/Hypocretin receptor type 1; experiment: Homogeneous Time Resolved Fluorescence (HTRF)-based cell-based high throughput dose response assay for antagonists of the orexin 1 receptor (OX1R; HCRTR1). [Related pubchem assays (depositor defined):AID434989, AID435008, AID463079, AID485270, AID492963, AID492964, AID492965, AID493232, AID504717, AID504718]; format: functional
[20] = biological target: T5, CAAX prenyl protease 2 (Saccharomyces cerevisiae S288c, UniProt Q03530); format: biochemical
T5 sequence (Q03530 whole entry): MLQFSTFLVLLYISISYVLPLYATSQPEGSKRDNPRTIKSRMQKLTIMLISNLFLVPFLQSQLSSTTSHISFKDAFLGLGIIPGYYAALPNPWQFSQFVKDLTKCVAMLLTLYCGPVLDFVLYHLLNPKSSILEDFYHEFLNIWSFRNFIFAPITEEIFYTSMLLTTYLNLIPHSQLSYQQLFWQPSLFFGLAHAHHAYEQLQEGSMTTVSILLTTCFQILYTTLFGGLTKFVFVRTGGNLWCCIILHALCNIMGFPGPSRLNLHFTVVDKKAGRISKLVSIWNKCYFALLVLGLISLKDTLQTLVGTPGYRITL

[21] = MC4R antagonists, dose response, counter-screen for LGR2 antagonist project, cell-based, plate reader, cherry pick (AID 743444); format: functional;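 also: transfected HEK 293 cells stimulated with alpha-MSH peptide; potency of inhibitors of the alpha-MSH evoked signal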
[22] = test system: Streptococcus sp. 'group A'; experiment: growth inhibition of control SK(-) GAS strain, dose response, counter-screen for streptokinase expression inhibitor project, luminescence, kanamycin, BacTiterGlo, confirmation (AID 1900); format: functional, organism-based
[23] = nonselective inhibitors of cellular cAMP signaling, dose response, counter-screen for MC4R biased antagonist project, cell-based, TR-FRET cAMP detection (AID 602305); format: functional;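 also: U2OS cells stimulated with forskolin near its EC80 as the cAMP inducer; potency is for inhibition of forskolin-stimulated cAMP signaling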
[24] = biological target: Melanocortin receptor 4 (Homo sapiens, UniProt P32245); experiment: MC4R antagonist potency on cAMP, dose response, cell-based, TR-FRET, biased antagonists (AID 602298); format: functional;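 also: antagonist potency against agonist-stimulated cAMP production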
[25] = LGR2 antagonists, dose response, cell-based, HEK293, CRE-luciferase reporter, cherry pick, set 2 (AID 743343); format: functional;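 also: transfected cells were stimulated with diluted bursicon conditioned medium after compound addition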
[26] = biological target: T6, Neuropeptides B/W receptor type 1 (Homo sapiens, UniProt P48145); experiment: GPR7 antagonist potency, late-stage follow-up, cell-based, fluorescence, dose response, set 5 (AID 588566); format: functional
T6 sequence (P48145 whole entry): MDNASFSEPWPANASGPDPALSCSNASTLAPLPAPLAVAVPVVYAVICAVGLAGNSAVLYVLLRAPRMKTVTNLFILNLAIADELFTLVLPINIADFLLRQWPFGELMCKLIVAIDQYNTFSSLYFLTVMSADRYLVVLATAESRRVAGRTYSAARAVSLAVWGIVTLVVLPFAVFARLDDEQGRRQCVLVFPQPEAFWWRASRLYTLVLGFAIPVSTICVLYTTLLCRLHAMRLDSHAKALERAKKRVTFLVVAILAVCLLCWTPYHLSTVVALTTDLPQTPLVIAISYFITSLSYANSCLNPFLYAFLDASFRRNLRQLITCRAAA

[27] = biological target: Melanin-concentrating hormone receptor 1 (Homo sapiens, UniProt Q99705); experiment: Late-stage fluorescence-based counterscreen for antagonists of the G-protein coupled receptor 7 (GPR7): cell-based dose response assay to identify antagonists of the melanin-concentrating hormone receptor 1 (MCHR1) Set 5.; format: functional
Chain of Melanin-concentrating hormone receptor 1 (Q99705 whole entry): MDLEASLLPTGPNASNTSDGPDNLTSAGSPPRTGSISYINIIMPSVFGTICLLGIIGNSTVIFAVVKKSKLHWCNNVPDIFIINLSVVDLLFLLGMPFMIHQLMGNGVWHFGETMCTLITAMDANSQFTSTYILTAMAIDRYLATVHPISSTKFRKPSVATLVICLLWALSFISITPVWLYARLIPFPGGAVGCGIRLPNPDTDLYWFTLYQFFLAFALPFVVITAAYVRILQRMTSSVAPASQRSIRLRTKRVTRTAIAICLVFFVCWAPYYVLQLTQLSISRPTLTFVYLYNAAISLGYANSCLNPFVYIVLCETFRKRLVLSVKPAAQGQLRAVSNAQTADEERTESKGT

Chain of Protein disulfide-isomerase (P07237 whole entry, the tested form may be a part): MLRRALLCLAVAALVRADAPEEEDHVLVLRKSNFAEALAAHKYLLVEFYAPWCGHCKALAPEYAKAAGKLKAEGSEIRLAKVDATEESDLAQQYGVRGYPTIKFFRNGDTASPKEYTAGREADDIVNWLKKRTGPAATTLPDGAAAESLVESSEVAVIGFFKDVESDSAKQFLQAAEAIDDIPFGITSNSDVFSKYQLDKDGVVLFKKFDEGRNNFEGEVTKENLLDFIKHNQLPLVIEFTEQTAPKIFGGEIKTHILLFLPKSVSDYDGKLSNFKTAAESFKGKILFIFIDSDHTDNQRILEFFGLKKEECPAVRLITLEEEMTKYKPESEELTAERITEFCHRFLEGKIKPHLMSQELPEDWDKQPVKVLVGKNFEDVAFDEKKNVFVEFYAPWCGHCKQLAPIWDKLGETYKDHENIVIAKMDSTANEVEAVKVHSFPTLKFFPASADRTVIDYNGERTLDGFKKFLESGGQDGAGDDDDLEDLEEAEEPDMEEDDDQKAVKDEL
Chain of Melanocortin receptor 4 (P32245 whole entry): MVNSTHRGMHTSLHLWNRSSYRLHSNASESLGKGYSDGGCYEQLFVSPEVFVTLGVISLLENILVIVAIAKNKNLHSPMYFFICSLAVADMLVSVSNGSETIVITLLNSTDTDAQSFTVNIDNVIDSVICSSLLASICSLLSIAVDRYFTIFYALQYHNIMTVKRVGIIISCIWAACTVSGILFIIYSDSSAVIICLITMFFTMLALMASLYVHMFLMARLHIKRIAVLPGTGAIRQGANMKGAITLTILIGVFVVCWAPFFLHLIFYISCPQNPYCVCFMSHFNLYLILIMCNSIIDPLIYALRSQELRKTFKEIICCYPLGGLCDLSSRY

CC(C)(C)OC(=O)N[C@@H](Cc1c[nH]c2ccccc12)c1nnc(SCC(N)=O)o1
AC50 [1]: 19.5 µM (active)

N#Cc1ccc(NC(=S)NCCN2CCOCC2)cc1
AC50 [2]: 107 µM (active)

O=C(Cc1cccs1)N(Cc1ccco1)C1(C(=O)NC2CCCCC2)CCCCC1
EC50 [3]: 159 µM (active) | EC50 [4]: 24.2 µM (active) | EC50 [5]: 431 µM (active)

CCc1cc(OCCCCNCc2ccccc2)ccc1Cl
CC50 [6]: > 40 µM (active) | IC50 [7]: 20.1 µM (active) | AC50 [1]: 10.6 µM (active) | CC50 [8]: > 40 µM (active)

O=[N+]([O-])c1ccc(-c2c[nH]c(SC(c3ccccc3)c3ccccc3)n2)cc1
IC50 [9]: 32.6 µM (inactive) | AC50 [10]: 19.1 µM (active) | IC50 [11]: 29.7 µM (inactive) | AC50 [12]: 19 µM (active) | AC50 [13]: 22.2 µM (active) | EC50 [14]: > 150 µM (not active) | IC50 [15]: 7.34 µM (active) | EC50 [16]: 15.2 µM (active) | IC50 [17]: > 66.2 µM (inactive) | IC50 [18]: > 50 µM (inactive) | IC50 [19]: 5.72 µM (active) | AC50 [20]: 2.05 µM (active) | AC50 [21]: 7.88 µM (active) | EC50 [22]: 6.07 µM (active)

CC(C)c1ccccc1NC(=O)Cn1c(-c2ccccc2Cl)nc2ccccc21
EC50 [4]: 18.3 µM (active)

O=[N+]([O-])c1cccc(-c2nc(-c3cccs3)c(-c3cccs3)[nH]2)c1
IC50 [9]: > 49.8 µM (inactive) | IC50 [11]: 28.8 µM (inactive) | IC50 [15]: > 5.53 µM (active) | IC50 [17]: > 66.2 µM (inactive) | IC50 [18]: 3.2 µM (active) | IC50 [19]: 6.65 µM (active)

O=C(COC(=O)CNC(=O)c1ccc(Cl)cc1Cl)NCc1ccco1
IC50 [23]: > 64.6 µM (inactive) | IC50 [24]: > 64.6 µM (inactive)

Cc1ccc2nc(-c3ccc(NC(=O)C(C)Sc4nncs4)cc3)sc2c1 (stereo unspecified)
AC50 [13]: > 52 µM (inactive) | IC50 [23]: > 64.6 µM (inactive) | IC50 [24]: > 64.6 µM (inactive) | AC50 [25]: 5.56 µM (active) | AC50 [21]: 5.51 µM (active)

N#CC(c1ccccc1)c1c(Cl)cnn(Cc2cccc3ccccc23)c1=O (stereo unspecified)
IC50 [26]: 0.13 µM (active) | IC50 [27]: 7.61 µM (active)

COc1ccc(Oc2c(Cl)cnn(CC(=O)O)c2=O)cc1
IC50 [26]: > 20 µM (inactive) | IC50 [27]: > 20 µM (inactive)
